The text below walks through data of US7030145B2, “Pyridinyl derivatives for the treatment of depression” (Bristol-Myers Squibb Company, priority 2003, dated 2006).

The target of data set [1] is T1, cloned human CRF-R1 receptors (Homo sapiens, UniProt P34998).
T1 construct: the coding region was amplifies by PCR from start to stop codons; expressed in transfected cells; membranes
T1 sequence (P34998 24-415): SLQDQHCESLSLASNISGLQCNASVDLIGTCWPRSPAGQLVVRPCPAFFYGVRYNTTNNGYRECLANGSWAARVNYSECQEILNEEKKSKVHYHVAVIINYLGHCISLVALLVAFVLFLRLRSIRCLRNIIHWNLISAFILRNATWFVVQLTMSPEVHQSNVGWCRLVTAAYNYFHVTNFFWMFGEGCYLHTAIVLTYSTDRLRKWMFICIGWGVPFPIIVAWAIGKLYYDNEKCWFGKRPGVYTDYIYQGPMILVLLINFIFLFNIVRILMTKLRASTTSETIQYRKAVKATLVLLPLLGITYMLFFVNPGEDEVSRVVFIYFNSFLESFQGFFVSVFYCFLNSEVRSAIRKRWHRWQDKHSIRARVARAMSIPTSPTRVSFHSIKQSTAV
The data set can be described thus: CRF-R1 receptor binding assay (inhibition of 125I-ovine-CRF binding to cell membranes). To be noted: membranes of 293EBNA cells transfected with hCRFR1, class d = reported as percent inhibition at 10 μM, figures not given, read-out: activity (Ki class in the CRF assays). The procedure, abridged: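 Membranes from hygromycin-selected 293EBNA cells expressing human CRF-R1 were incubated for 2 h at room temperature with 150 pM 125I-ovine-CRF and test drug at 10^−10–10^−5 M final, in pH 7.0 HEPES buffer with MgCl2 and EGTA. Bound ligand was collected by filtration and gamma-counted, and Ki values were derived by iterative curve fitting.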

By Ki is commonly meant a dissociation constant, usually derived from enzyme kinetics or from competition with a known ligand. By melting point is commonly meant the temperature, or range, at which the solid turns liquid.

Compound `COc1ccc(OC)c(COc2ccc(S(=O)(=O)c3ccc(C)nc3Nc3c(C)cc(C)cc3C)cc2)c1` [Example 31, {3-[4-(2,5-Dimethoxybenzyloxy)-benzenesulfonyl]-6-methyl-pyridin-2-yl}-(2,4,6-trimethylphenyl)-amine] returned a melting point of 128 to 130 °C. Also, the Ki in data set [1] is at most 0.1 µM.

With `COc1cccc(COc2ccc(S(=O)(=O)c3ccc(C)nc3Nc3c(C)cc(C)cc3C)cc2)c1OC` [Example 32, {3-[4-(2,3-Dimethoxybenzyloxy)-benzenesulfonyl]-6-methylpyridin-2-yl}-(2,4,6-trimethylphenyl)-amine], the melting point is 124 to 126 °C. In addition, the Ki in data set [1] was at most 0.1 µM.

Compound `Cc1cc(C)c(Nc2nc(C)ccc2S(=O)(=O)c2ccc(OCc3cccc(F)c3F)cc2)c(C)c1` [Example 33, {3-[4-(2,3-Difluorobenzyloxy)-benzenesulfonyl]-6-methylpyridin-2-yl}-(2,4,6-trimethylphenyl)-amine] had a melting point of 136 to 138 °C. Further, the Ki in data set [1] was at most 0.1 µM.

Compound `Cc1cc(C)c(Nc2nc(C)ccc2S(=O)(=O)c2ccc(OCc3c(F)cccc3[N+](=O)[O-])cc2)c(C)c1` [Example 34, {3-[4-(2-Fluoro-6-nitrobenzyloxy)-benzenesulfonyl]-6-methyl-pyridin-2-yl}-(2,4,6-trimethylphenyl)-amine] gave a melting point of 132 to 134 °C. For the same compound, the Ki in data set [1] is at most 0.1 µM.

For `COc1ccc(C(C)=O)cc1COc1ccc(S(=O)(=O)c2ccc(C)nc2Nc2c(C)cc(C)cc2C)cc1` [Example 35], the melting point lay in the range of 141 to 143 °C. For the same compound, in data set [1], the Ki is 0.1 to 0.5 µM.

In turn, `Cc1cc(C)c(Nc2nc(C)ccc2S(=O)(=O)c2ccc(OCc3c(C)cccc3C)cc2)c(C)c1` [Example 36, {3-[4-(2,6-Dimethylbenzyloxy)-benzenesulfonyl]-6-methyl-pyridin-2-yl}-(2,4,6-trimethylphenyl)-amine] displayed a melting point of 136 to 138 °C. In addition, in data set [1], the Ki is at most 0.1 µM.

In turn, `Cc1cc(C)c(Nc2nc(C)ccc2S(=O)(=O)c2ccc(F)c(Cl)c2)c(C)c1` [Example 37, [3-(3-Chloro-4-fluorobenzenesulfonyl)-6-methylpyridin-2-yl]-(2,4,6-trimethylphenyl)-amine] displayed a melting point of 139 to 141 °C. In addition, the Ki in data set [1] lay within 0.1 to 0.5 µM.

Turning to `Cc1cc(C)c(Nc2nc(C)ccc2S(=O)(=O)c2ccc(Br)cc2)c(C)c1` [Example 46, [3-(4-Bromobenzenesulfonyl)-6-methylpyridin-2-yl]-(2,4,6-trimethylphenyl)-amine], the melting point lay in the range of 140 to 141 °C. Also, the Ki in data set [1] is at most 0.1 µM.

In turn, `Cc1cc(C)c(Nc2nc(C)ccc2S(=O)(=O)c2ccc(C(=O)c3ccccc3)cc2)c(C)c1` [Example 54, {4-[6-Methyl-2-(2,4,6-trimethylphenylamino)-pyridine-3-sulfonyl]-phenyl}-phenyl-methanone] gave a melting point of 222 to 225 °C. For the same compound, the Ki in data set [1] is at most 0.1 µM.

The compound `CC(=O)OCc1ccc(S(=O)(=O)c2ccc(C)nc2Nc2c(C)cc(C)cc2C)cc1` [Example 55, Acetic acid 4-[6-methyl-2-(2,4,6-trimethylphenylamino)-pyridine-3-sulfonyl]-benzyl ester] had a melting point of 132 to 134 °C. Moreover, in data set [1], the Ki was 0.1 to 0.5 µM.

Compound `COc1cccc(S(=O)(=O)c2ccc(C)nc2Nc2c(C)cc(C)cc2C)c1` [Example 56, [3-(3-Methoxybenzenesulfonyl)-6-methylpyridin-2-yl]-(2,4,6-trimethylphenyl)-amine] had a melting point of 87 to 88 °C. Further, the Ki in data set [1] was in the range of 0.1 to 0.5 µM.

For `Cc1cc(C)c(Nc2nc(C)ccc2S(=O)(=O)c2cccc(O)c2)c(C)c1` [Example 57, 3-[6-Methyl-2-(2,4,6-trimethylphenylamino)-pyridine-3-sulfonyl]-phenol], the melting point lay in the range of 196 to 197 °C. The Ki in data set [1] was in the range of 0.1 to 0.5 µM.

Turning to `CCOc1cccc(S(=O)(=O)c2ccc(C)nc2Nc2c(C)cc(C)cc2C)c1` [Example 58, [3-(3-Ethoxybenzenesulfonyl)-6-methylpyridin-2-yl]-(2,4,6-trimethylphenyl)-amine], the melting point was 96 to 97 °C. In addition, in data set [1], the Ki is 0.1 to 0.5 µM.

`COc1cc(COc2cccc(S(=O)(=O)c3ccc(C)nc3Nc3c(C)cc(C)cc3C)c2)cc(OC)c1` [Example 63, {3-[3-(3,5-Dimethoxybenzyloxy)-benzenesulfonyl]-6-methylpyridin-2-yl}-(2,4,6-trimethylphenyl)-amine]: the melting point lay in the range of 120 to 121 °C. Also, the Ki in data set [1] fell in the range of 0.1 to 0.5 µM.

As for `CCc1ccc(S(=O)(=O)c2ccc(C)nc2Nc2ccc(OC)cc2Cl)cc1` [Example 69, (2-Chloro-4-methoxyphenyl)-[3-(4-ethylbenzenesulfonyl)-6-methylpyridin-2-yl]-amine], the melting point lay in the range of 110 to 112 °C. Further, in data set [1], the Ki fell in the range of 0.1 to 0.5 µM.
